Laboratory results published in ChEMBL document CHEMBL5696442, “Discovery of type II inhibitors of TGFβ-activated kinase 1 (TAK1) and mitogen-activated protein kinase kinase kinase kinase 2 (MAP4K2)” (J Med Chem, 2015).
Calls of active or inactive are those of the source. The rule behind the calls is not given here.

Assays:
[1] = target: Calcium/calmodulin-dependent protein kinase type II subunit delta (Homo sapiens) (UniProt Q13557); experiment: Inhibition of CaMK2d Lys1 labeling site harbouring IPTGQEYAAKIINTKK in human Huh-7 cell lysate at 1 uM by KiNativ Profiling analysis relative to control; assay type: subcellular
[2] = target: Serine/threonine-protein kinase 24 (Homo sapiens) (UniProt Q9Y6E0); experiment: Inhibition of MST3 Lys2 labeling site harbouring DIKAANVLLSEHGEVK in human Huh-7 cell lysate at 1 uM by KiNativ Profiling analysis relative to control; assay type: subcellular
Chain of Serine/threonine-protein kinase 24 (Homo sapiens) (Q9Y6E0 whole entry, looked up): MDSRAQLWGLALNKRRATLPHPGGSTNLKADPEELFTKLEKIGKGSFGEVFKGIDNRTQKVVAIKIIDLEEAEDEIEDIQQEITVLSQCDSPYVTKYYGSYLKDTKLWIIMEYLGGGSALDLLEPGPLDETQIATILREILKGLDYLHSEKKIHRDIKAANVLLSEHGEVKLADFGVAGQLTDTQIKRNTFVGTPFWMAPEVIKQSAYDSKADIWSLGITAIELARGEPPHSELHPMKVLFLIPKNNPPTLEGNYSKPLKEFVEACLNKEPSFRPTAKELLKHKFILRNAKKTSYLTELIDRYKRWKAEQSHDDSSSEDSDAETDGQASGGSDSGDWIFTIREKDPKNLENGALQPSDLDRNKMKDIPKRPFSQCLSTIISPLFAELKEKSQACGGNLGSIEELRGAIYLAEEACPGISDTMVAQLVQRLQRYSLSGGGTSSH

[3] = target: Serine/threonine-protein kinase 26 (Homo sapiens) (UniProt Q9P289); experiment: Inhibition of MST4 Lys2 labeling site in human Huh-7 cells at 1 uM by KiNativ Profiling analysis relative to control; assay type: cell-based
[4] = target: Atypical kinase COQ8B, mitochondrial (Homo sapiens) (UniProt Q96D53); experiment: Inhibition of ADCK4 (unknown origin) at 1 uM by Ambit Kinomescan binding assay relative to control
Chain of Atypical kinase COQ8B, mitochondrial (Homo sapiens) (Q96D53 whole entry): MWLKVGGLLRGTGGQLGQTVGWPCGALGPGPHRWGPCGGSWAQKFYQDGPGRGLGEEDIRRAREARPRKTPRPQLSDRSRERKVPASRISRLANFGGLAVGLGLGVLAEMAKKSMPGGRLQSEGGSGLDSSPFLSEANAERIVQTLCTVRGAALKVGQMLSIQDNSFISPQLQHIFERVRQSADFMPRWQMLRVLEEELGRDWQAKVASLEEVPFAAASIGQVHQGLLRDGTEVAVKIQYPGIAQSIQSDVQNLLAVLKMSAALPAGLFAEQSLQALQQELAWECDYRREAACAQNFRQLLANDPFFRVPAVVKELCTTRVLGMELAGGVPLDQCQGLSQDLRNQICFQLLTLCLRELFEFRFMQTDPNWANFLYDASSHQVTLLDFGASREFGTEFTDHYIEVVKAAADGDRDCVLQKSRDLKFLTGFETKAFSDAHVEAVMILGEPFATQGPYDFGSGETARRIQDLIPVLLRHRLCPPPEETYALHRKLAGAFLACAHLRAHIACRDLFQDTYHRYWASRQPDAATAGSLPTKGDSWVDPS

[5] = test system: Epidermal growth factor receptor (Homo sapiens), P00533 [G719S]; experiment: Inhibition of EGFR G719S mutant (unknown origin) at 1 uM by Ambit Kinomescan binding assay relative to control
[6] = target: Tyrosine-protein kinase JAK3 (Homo sapiens) (UniProt P52333); experiment: Inhibition of JAK3 JH1 catalytic domain (unknown origin) at 1 uM by Ambit Kinomescan binding assay relative to control
Chain of Tyrosine-protein kinase JAK3 (Homo sapiens) (P52333 whole entry, the tested form may be a part): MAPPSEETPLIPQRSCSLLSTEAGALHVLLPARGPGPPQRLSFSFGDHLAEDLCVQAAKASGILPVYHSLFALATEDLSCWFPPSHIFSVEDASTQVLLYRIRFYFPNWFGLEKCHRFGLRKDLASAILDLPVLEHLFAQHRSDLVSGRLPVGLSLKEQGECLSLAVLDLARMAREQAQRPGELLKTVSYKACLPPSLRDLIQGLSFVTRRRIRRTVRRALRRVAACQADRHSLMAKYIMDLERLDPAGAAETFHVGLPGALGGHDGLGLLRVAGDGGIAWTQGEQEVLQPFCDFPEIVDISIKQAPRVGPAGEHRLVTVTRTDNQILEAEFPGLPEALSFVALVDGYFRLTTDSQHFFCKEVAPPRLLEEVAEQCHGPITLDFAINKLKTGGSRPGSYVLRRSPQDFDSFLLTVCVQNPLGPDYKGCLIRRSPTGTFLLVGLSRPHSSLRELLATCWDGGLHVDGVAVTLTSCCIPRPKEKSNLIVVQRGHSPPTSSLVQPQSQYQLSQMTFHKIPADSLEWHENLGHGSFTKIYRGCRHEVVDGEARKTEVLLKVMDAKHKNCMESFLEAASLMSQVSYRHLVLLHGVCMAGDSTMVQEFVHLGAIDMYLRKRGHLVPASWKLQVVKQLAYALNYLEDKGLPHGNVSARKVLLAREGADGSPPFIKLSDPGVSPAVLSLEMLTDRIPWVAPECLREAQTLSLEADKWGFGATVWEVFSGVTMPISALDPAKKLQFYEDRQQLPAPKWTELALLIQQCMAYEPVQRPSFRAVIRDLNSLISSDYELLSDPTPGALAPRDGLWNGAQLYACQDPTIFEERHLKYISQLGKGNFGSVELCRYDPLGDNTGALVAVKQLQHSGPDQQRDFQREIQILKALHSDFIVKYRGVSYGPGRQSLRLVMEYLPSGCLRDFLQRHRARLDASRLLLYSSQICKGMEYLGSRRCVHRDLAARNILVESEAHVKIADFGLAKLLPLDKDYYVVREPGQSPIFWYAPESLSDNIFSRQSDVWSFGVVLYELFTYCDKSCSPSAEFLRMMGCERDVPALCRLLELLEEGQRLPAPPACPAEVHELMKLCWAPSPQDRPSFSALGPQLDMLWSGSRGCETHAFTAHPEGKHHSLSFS

[7] = target: Ribosomal protein S6 kinase beta-1 (Homo sapiens) (UniProt P23443); experiment: Inhibition of S6K1 (unknown origin) at 1 uM by Ambit Kinomescan binding assay relative to control
[8] = target: Serine/threonine-protein kinase 16 (Homo sapiens) (UniProt O75716); experiment: Inhibition of STK16 (unknown origin) at 1 uM by Ambit Kinomescan binding assay relative to control
Chain of Serine/threonine-protein kinase 16 (Homo sapiens) (O75716 whole entry): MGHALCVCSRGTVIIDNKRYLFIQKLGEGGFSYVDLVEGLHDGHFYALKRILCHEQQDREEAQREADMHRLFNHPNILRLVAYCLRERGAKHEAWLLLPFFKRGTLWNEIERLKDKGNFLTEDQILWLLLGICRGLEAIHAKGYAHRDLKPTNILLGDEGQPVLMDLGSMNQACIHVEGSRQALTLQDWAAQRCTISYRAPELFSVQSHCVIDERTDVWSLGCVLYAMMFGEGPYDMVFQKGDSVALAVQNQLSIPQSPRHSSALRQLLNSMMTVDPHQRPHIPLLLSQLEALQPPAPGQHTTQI

[9] = target: RAF proto-oncogene serine/threonine-protein kinase (Homo sapiens, UniProt P04049); experiment: Inhibition of RAF1 Lys2 labeling site in human A-375 cells at 5 uM by KiNativ Profiling analysis relative to control; assay type: cell-based
[10] = target: MAP kinase-activated protein kinase 2 (Homo sapiens) (UniProt P49137); experiment: Inhibition of MAPKAPK2 (unknown origin) at 10 uM by Ambit Kinomescan binding assay
Chain of MAP kinase-activated protein kinase 2 (Homo sapiens) (P49137 whole entry, looked up, the tested form may be a part): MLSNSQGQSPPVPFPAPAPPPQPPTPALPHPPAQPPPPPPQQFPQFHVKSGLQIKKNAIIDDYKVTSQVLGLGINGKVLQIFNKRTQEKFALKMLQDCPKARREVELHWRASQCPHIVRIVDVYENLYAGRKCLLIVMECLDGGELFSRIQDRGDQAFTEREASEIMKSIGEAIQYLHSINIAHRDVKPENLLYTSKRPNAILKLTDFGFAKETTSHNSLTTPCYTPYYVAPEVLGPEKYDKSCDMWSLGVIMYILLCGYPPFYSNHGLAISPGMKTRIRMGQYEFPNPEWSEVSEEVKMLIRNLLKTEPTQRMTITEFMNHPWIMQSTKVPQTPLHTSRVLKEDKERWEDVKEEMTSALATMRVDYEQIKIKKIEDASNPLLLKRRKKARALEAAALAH

[11] = target: Ribosomal protein S6 kinase alpha-1 (Homo sapiens) (UniProt Q15418); experiment: Inhibition of N-terminal RPS6KA1 kinase domain 1 (unknown origin) at 10 uM by Ambit Kinomescan binding assay
Chain of Ribosomal protein S6 kinase alpha-1 (Homo sapiens) (Q15418 whole entry, the tested form may be a part): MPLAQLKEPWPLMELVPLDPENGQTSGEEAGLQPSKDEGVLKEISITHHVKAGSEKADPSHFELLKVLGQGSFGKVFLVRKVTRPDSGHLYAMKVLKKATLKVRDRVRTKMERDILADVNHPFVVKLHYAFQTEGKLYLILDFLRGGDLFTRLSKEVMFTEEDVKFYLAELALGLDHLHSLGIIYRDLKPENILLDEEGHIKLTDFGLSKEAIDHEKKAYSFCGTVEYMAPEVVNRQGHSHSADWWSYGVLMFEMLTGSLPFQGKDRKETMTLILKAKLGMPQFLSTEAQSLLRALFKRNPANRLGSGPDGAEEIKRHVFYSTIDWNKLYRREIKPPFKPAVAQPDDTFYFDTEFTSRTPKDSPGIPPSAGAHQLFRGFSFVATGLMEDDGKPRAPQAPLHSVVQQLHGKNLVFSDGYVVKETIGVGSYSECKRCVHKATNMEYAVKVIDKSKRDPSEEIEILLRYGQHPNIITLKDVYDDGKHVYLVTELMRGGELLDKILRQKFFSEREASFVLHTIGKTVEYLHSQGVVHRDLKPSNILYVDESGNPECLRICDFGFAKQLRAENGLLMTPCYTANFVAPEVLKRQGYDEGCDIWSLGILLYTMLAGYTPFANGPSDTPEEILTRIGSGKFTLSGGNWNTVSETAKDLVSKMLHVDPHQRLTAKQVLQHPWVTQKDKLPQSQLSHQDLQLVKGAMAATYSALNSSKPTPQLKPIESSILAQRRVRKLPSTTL

[12] = target: TGF-beta receptor type-2 (Homo sapiens) (UniProt P37173); experiment: Inhibition of TGFBR2 (unknown origin) at 10 uM by Ambit Kinomescan binding assay
Chain of TGF-beta receptor type-2 (Homo sapiens) (P37173 whole entry): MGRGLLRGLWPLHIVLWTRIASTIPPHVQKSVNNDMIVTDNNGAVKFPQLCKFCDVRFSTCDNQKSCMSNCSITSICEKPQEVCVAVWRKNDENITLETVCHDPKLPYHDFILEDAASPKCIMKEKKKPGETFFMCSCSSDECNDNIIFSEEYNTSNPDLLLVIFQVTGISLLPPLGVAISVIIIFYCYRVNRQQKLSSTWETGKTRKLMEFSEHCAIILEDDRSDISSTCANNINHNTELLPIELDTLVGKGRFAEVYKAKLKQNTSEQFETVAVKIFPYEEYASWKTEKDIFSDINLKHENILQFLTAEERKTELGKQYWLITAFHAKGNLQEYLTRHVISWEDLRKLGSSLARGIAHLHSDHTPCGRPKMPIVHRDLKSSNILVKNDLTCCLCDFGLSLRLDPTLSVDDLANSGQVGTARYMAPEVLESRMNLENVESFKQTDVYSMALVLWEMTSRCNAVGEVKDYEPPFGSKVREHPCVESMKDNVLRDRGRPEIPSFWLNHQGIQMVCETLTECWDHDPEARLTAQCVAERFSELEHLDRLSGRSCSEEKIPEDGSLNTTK

[13] = target: Mitogen-activated protein kinase 7 (Homo sapiens) (UniProt Q13164); experiment: Inhibition of Erk5 Lys2 labeling site in human A-375 cells at 0.05 uM by KiNativ Profiling analysis relative to control; assay type: cell-based
Chain of Mitogen-activated protein kinase 7 (Homo sapiens) (Q13164 2-816 limits assumed): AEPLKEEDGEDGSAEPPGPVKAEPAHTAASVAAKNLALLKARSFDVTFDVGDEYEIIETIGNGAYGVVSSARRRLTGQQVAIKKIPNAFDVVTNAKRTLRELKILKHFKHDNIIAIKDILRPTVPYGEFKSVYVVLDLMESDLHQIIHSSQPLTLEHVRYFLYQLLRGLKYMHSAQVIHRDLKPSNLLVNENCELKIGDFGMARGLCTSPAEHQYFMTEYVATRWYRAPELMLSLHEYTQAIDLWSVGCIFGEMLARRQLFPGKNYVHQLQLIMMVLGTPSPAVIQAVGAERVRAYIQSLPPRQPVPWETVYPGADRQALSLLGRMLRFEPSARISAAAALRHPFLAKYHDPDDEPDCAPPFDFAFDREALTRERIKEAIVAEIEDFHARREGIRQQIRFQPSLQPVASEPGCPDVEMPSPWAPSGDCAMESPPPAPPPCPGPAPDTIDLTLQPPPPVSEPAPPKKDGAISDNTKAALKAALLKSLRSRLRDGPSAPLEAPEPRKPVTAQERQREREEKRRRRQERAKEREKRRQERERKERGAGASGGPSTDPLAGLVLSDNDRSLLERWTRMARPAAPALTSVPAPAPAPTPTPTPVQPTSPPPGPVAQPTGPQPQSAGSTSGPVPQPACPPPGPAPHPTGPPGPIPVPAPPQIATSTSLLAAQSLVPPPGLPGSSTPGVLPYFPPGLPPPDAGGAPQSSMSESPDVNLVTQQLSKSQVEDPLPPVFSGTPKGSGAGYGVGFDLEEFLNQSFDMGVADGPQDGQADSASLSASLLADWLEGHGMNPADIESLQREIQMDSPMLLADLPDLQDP

[14] = target: T1, Phosphatidylinositol 5-phosphate 4-kinase type-2 gamma (Homo sapiens) (UniProt Q8TBX8); experiment: Inhibition of PIP5K2C C2 labeling site in human Huh-7 cells at 10 uM by KiNativ Profiling analysis relative to control; assay type: cell-based
T1 sequence (whole entry): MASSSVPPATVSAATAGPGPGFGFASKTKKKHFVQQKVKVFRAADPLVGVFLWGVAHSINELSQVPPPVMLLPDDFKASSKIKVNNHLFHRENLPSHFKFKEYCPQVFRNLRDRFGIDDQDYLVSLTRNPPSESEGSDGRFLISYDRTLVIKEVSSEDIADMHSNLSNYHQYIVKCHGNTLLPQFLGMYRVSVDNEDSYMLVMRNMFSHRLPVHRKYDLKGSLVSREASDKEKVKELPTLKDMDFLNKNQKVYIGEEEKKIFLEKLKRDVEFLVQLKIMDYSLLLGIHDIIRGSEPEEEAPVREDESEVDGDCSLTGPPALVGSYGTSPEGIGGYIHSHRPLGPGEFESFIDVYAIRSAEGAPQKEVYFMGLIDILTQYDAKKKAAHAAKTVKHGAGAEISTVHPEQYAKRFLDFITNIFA

[15] = target: T2, Serine/threonine-protein kinase D3 (Homo sapiens) (UniProt O94806); experiment: Inhibition of PKD3 K2 labeling site in human Huh-7 cells at 10 uM by KiNativ Profiling analysis relative to control; assay type: cell-based
T2 sequence (whole entry): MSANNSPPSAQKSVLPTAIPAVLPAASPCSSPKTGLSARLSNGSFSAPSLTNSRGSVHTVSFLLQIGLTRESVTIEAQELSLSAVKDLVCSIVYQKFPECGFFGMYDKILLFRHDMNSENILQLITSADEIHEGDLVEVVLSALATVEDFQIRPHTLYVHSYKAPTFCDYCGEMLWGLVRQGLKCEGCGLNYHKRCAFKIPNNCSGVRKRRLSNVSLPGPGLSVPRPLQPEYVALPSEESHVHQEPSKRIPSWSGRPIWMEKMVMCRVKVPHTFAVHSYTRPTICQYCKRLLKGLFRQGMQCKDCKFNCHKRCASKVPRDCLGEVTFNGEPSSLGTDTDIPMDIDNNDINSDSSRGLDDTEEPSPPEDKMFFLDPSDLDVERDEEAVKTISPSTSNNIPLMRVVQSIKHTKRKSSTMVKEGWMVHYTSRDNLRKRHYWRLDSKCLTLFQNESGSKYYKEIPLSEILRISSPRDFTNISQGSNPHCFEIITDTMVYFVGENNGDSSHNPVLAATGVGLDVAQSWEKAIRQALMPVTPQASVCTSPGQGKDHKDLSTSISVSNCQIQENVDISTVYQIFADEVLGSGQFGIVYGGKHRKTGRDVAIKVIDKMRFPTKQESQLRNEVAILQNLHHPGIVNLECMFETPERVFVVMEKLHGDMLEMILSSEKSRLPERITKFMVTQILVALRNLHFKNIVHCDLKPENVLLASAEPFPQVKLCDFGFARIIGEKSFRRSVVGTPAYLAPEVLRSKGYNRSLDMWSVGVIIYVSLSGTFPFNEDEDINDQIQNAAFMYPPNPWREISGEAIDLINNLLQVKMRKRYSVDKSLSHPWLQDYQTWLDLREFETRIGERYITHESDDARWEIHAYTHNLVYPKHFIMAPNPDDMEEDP

[16] = target: Receptor-interacting serine/threonine-protein kinase 1 (Homo sapiens) (UniProt Q13546); experiment: Inhibition of RIPK1 (unknown origin) at 10 uM by Ambit Kinomescan binding assay relative to control; values are per cent of control

Compound: CNc1cc(Oc2cc(C(=O)Nc3cc(N4CCN(C)CC4)cc(C(F)(F)F)c3)ccc2C)ncn1
- inhibition [1]: 15.4%
- inhibition [2]: 5.5%
- inhibition [3]: 25.2%

Compound: CCN1CCN(Cc2ccc(NC(=O)c3ccc(C)c(/C=C/c4cnc5[nH]ccc5c4OC)c3)cc2C(F)(F)F)CC1
- inhibition [4]: 81%
- inhibition [5]: 0.9%
- inhibition [6]: 55%
- inhibition [7]: 46%
- inhibition [8]: 100%

Compound: CCN1CCN(Cc2ccc(NC(=O)c3ccc(C)c(Oc4ccnc5[nH]ccc45)c3)cc2C(F)(F)F)CC1
- inhibition [9]: 83.8%
- inhibition [10]: inactive
- inhibition [11]: inactive
- inhibition [12]: inactive
- inhibition [13]: 5.3%
- inhibition [14]: 2.3%
- inhibition [15]: 17.2%
- residual activity [16]: 0%
